Source: publication PMC9286291, “A new adenine nucleotide transporter located in the ER is essential for maintaining the growth of Toxoplasma gondii” (PLoS Pathogens, 2022)

Columns and labels:
PfANT = molecular target: T1, PfANT (Plasmodium falciparum, UniProt Q8IIM9); experiment: inhibition of [α-32P]ATP uptake into intact E. coli cells; format: cell-based; conditions: 25 nM [α-32P]ATP, unlabelled competitor at 100-fold concentration, 15 min, 30 °C, 50 mM potassium phosphate pH 7.0
T1 construct: gene PF3D7_1113300; expressed in the plasma membrane of intact IPTG-induced E. coli from an encoding plasmid
T1 sequence (Q8IIM9 1-343): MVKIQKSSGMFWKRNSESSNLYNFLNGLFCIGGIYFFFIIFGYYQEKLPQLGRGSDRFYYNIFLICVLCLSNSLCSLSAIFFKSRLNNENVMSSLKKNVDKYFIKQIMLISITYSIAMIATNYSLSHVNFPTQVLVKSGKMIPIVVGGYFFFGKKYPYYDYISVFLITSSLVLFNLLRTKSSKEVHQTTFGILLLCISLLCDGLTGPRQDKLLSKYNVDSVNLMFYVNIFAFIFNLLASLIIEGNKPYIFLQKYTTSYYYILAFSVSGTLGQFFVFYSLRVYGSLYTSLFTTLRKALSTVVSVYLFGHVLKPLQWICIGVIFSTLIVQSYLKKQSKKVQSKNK
Excerpt: inhibition of [α-32P]ATP uptake into intact E. coli cells on PfANT

TgANT = molecular target: T2, TgANT (Toxoplasma gondii, UniProt A0A7J6KCX5); experiment: as above; format: cell-based; conditions: 25 nM [α-32P]ATP, unlabelled competitor at 100-fold concentration, 15 min, 30 °C, 50 mM potassium phosphate pH 7.0
T2 construct: gene TGRH88_003770; codon-optimised CDS in pET16b, expressed in the plasma membrane of intact E. coli BL21 (DE3); HA tag in the IFA construct
T2 sequence (A0A7J6KCX5 1-413): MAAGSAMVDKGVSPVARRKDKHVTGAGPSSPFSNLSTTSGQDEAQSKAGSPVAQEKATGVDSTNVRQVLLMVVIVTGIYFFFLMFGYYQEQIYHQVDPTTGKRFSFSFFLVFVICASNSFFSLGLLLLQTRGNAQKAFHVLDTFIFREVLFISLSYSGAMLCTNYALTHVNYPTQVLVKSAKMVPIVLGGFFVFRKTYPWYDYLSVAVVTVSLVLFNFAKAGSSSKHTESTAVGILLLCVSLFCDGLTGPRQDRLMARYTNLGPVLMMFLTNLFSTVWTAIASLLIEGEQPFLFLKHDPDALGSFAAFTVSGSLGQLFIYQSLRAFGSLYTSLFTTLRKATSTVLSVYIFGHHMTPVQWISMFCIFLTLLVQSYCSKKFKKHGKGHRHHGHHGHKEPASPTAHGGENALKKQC
Excerpt: inhibition of [α-32P]ATP uptake into intact E. coli cells on TgANT

Nc1ncnc2c1ncn2[C@@H]1O[C@H](COP(=O)(O)OP(=O)(O)O)[C@@H](O)[C@H]1O [ADP]
Uptake(% of control) (PfANT): 28.9 ±3.8 % of control | Uptake(% of control) (TgANT): 3.9 ±0.31 % of control

Nc1ncnc2c1ncn2[C@@H]1O[C@H](COP(=O)(O)OP(=O)(O)OP(=O)(O)O)[C@@H](O)[C@H]1O [ATP]
Uptake(% of control) (PfANT): 23.8 ±1.4 % of control | Uptake(% of control) (TgANT): 3.4 ±0.25 % of control
